Assay results taken from patent US5942523A, “Compounds which are selective antagonists of the human NK3 receptor and their use as medicinal products and diagnostic tools” (Sanofi, priority 1994, dated 1999).
Residues, ends and D or L forms follow the SMILES beside them.

How the values were obtained:
human NK3 receptor = target: T1, human NK3 receptor (Homo sapiens, UniProt P29371); experiment: binding of [^125 I]His[MePhe^7 ]NKB to the cloned human NK3 receptors expressed by CHO cells; settings: from comparison of Ki values for human NK3 and other tachykinin receptors
T1 construct: expressed in transfected cells; host or cells: CHO cells
T1 sequence (P29371 1-465): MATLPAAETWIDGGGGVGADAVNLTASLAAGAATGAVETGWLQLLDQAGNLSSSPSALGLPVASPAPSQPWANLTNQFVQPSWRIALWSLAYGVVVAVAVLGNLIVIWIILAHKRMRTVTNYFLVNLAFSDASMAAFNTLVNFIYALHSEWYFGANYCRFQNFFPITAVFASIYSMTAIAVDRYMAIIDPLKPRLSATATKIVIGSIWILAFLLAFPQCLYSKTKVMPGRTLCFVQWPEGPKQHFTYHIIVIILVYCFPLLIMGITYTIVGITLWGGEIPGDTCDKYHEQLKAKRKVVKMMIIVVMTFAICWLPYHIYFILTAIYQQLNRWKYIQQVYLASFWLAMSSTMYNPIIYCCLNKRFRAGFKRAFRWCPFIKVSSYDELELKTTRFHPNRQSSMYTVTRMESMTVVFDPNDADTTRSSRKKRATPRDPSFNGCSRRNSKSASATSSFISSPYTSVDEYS
Experimental: In studies on the binding of a ligand, the inhibition constant Ki is defined by the Cheng-Prusoff equation (in Receptor Binding in Drug Research, eds. R. A. O'BRIEN. Marcel Dekker, New York, 1986): [formula] [L]: ligand concentration Kd: dissociation constant of the ligand,
The affinity of the compounds of formula (I') for the tachykinin receptors was evaluated in vitro by several biochemical assays using radioligands:
3) The binding of [^125 I]His[MePhe^7 ]NKB to the NK3 receptors of rat cerebral cortex, of guinea pig cerebral cortex and of gerbil cerebral cortex as well as to the cloned human NK3 receptors expressed by CHO cells (Buell et al., FEBS Letters, 1992, 299, 90-95).
The assays were carried out according to X. Emonds-Alt et al. (Eur. J. Pharmacol., 1993, 250, 403-413).

NK3 receptor [1] = experiment: rotating behavior induced by intrastriatal administration of senktide in gerbils; format: in vivo; settings: unilateral application in the gerbil striatum; agonist alone
Experimental: (§1) The compounds according to the present invention were also evaluated in vivo on two animal models.

NK3 receptor [2] = experiment: hypertension induced by intravenous or intracerebroventricular injection of senktide in guinea pigs; format: in vivo, guinea pig; settings: agonist alone
Experimental: as §1

CN(CC(CCCN1CCC(O)(c2ccccc2)CC1)c1ccc(Cl)c(Cl)c1)C(=O)c1ccccc1.Cl (stereo not shown) [Example 22 of Application EP 474561, N-Methyl-N-[2-(3,4-dichlorophenyl)-5-(4-hydroxy-4-phenylpiperid-1-yl)pentyl]benzamide hydrochloride]
selectivity / specificity for the human NK3 receptor (human NK3 receptor): high specificity

Cl.O=C1CCC(CCN2CCC(O)(c3ccccc3)CC2)(c2ccc(Cl)c(Cl)c2)CN1Cc1ccccc1 (stereo not shown) [compound A, 5-[2-(4-hydroxy-4-phenylpiperid-1-yl)ethyl]-5-(3,4-dichlorophenyl)-1-benzylpiperid-2-one hydrochloride]
selectivity / specificity for the human NK3 receptor (human NK3 receptor): not selective for the human NK3 receptor

CSCC[C@H](NC(=O)[C@H](CC(C)C)NC(=O)CNC(=O)[C@H](Cc1ccccc1)N(C)C(=O)[C@H](Cc1ccccc1)NC(=O)[C@H](CC(=O)O)NC(=O)CCC(=O)O)C(N)=O [senktide] (HELM PEPTIDE1{[O=C(O)CCC(=O)[*:2]].D.F.[meF].G.L.M.[am]}$$$$V2.0)
rotating behavior (NK3 receptor [1]): strong contralateral rotations
hypertension (NK3 receptor [2]): induces a hypertension
